How the values were obtained:
Format in all cases: in vivo
Puccinia recondita = experiment: Curative activity against brown rust of wheat caused by Puccinia recondita; conditions: curative spray 24 h after inoculation, wheat seedlings "Kanzler", 7 days
Procedure, shortened: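 Wheat seedlings (cv. Kanzler) inoculated with brown rust spores and held 24 h at 90–95% humidity and 20–22°C, then sprayed to runoff with the emulsified compound the next day. Rust development on leaves scored after 7 days in greenhouse at 20–22°C and 65–70% relative humidity.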

Pyrenophora teres = experiment: Activity against net blotch of barley caused by Pyrenophora teres; conditions: barley seedlings "Igri", inoculated 24 h after spraying, 6 days
Procedure, shortened: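 Potted barley seedlings (cv. Igri) were sprayed to runoff with aqueous compound preparation, then inoculated with P. teres spores 24 h after the spray dried. Plants were kept in a greenhouse at 20-24° C and 95-100% relative humidity, and disease was scored visually after 6 days as % infected leaf area.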

Septoria tritici = experiment: Protective activity against Septoria foliar blotch disease of wheat caused by Septoria tritici; conditions: wheat seedlings "Riband", inoculated 24 h after spraying, 2 weeks
Experimental: The active compounds were prepared separately or jointly as a 10% strength emulsion in a mixture of 70% by weight of cyclohexanone, 20% by weight of Nekanil® LN (Lutensol® AP6, wetting agent having emulsifying and dispersing action based on ethoxylated alkylphenols) and 10% by weight of Wettol® EM (nonionic emulsifier based on ethoxylated castor oil) and diluted with water to the desired concentration.
Leaves of potted wheat seedlings of the cultivar “Riband” were sprayed to runoff point with an aqueous preparation of active compound which had been prepared from a stock solution made of 10% of active compound, 85% of cyclohexanone and 5% of emulsifier. 24 hours after the spray coating had dried on, they were inoculated with an aqueous spore suspension of Septoria tritici. The suspension contained 2.0×10^6 spores/ml. The test plants were then placed in a greenhouse at 18-22° C. and a relative atmospheric humidity of close to 100%. After 2 weeks, the extent of the development of the disease was determined visually in % infection of the entire leaf area.

[1] = system: Blumeria graminis forma specialis tritici; experiment: Activity against mildew of wheat caused by Blumeria graminis forma specialis tritici; conditions: wheat seedlings "Kanzler", dusted with spores 24 h after spraying, 7 days
Procedure, shortened: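 Compound, emulsified then diluted in water, sprayed to runoff onto leaves of potted wheat seedlings cv. Kanzler; inoculated with Blumeria graminis f. sp. tritici spores 24 h after the coating dried. Plants kept in greenhouse at 20-24° C., 60-90% relative humidity; mildew scored visually after 7 days as % infected leaf area.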

Row | Compound | % infection of the leaves after application of an aqueous preparation comprising . . . ppm of active compound (Puccinia recondita; 250 ppm) [%] | % infection of the leaves after application of an aqueous preparation comprising . . . ppm of active compound (Pyrenophora teres; 16 ppm) [%] | % infection of the leaves after application of an aqueous preparation comprising . . . ppm of active compound (Pyrenophora teres; 63 ppm) [%] | % infection of the leaves after application of an aqueous preparation comprising . . . ppm of active compound (Septoria tritici; 16 ppm) [%] | % infection of the leaves after application of an aqueous preparation comprising . . . ppm of active compound (Septoria tritici; 63 ppm) [%] | % infection of the leaves after application of an aqueous preparation comprising . . . ppm of active compound (Septoria tritici; 250 ppm) [%] | % infection of the leaves after application of an aqueous preparation comprising . . . ppm of active compound ([1]; 16 ppm) [%] | % infection of the leaves after application of an aqueous preparation comprising . . . ppm of active compound ([1]; 63 ppm) [%] | % infection of the leaves after application of an aqueous preparation comprising . . . ppm of active compound ([1]; 250 ppm) [%] | % infection of the leaves after application of an aqueous preparation comprising . . . ppm of active compound (Puccinia recondita; 16 ppm) [%] | % infection of the leaves after application of an aqueous preparation comprising . . . ppm of active compound (Puccinia recondita; 63 ppm) [%] | % infection of the leaves after application of an aqueous preparation comprising . . . ppm of active compound (Pyrenophora teres; 250 ppm) [%]
1 | CC(Nc1c(-c2ccccc2Cl)c(Cl)nc2ncnn12)C(C)(C)C (single isomer, unassigned) [I.-44a] | 60 | 60 | 7 | 60 | 7 | 7 | 50 | 30 | 30 |  |  | 
2 | CC(C)[C@@H](C)Nc1c(-c2c(F)cccc2Cl)c(Cl)nc2ncnn12 [I.-2] | 5 |  |  | 0 | 0 | 0 |  | 40 | 40 | 15 | 5 | 
3 | CCC(C)Nc1c(-c2c(F)cccc2F)c(Cl)nc2ncnn12 (centres unmarked) [I.-4] | 10 |  |  | 20 | 15 | 3 | 80 | 60 | 60 | 40 | 20 | 
4 | CC(C)C(C)Nc1c(-c2c(F)cccc2F)c(Cl)nc2ncnn12 (centres unmarked) [I.-5] | 10 | 20 |  | 15 | 15 | 15 | 40 | 40 | 20 |  | 10 | 
5 | CCC(C)Nc1c(-c2c(Cl)cccc2Cl)c(Cl)nc2ncnn12 (centres unmarked) [I.-7] |  | 80 | 30 | 70 | 30 | 15 |  |  | 60 | 40 |  | 15
6 | CC(C)C(C)Nc1c(-c2c(F)cc(F)cc2F)c(Cl)nc2ncnn12 (centres unmarked) [I.-14] |  | 3 |  | 15 | 15 | 15 | 30 | 30 | 20 | 0 | 0 | 
7 | CC[C@@H](C)Nc1c(-c2c(F)cc(OC)cc2F)c(Cl)nc2ncnn12 [I.-16] |  |  |  |  | 70 | 70 | 40 | 40 | 20 | 7 | 0 | 
8 | CC(C)C(C)Nc1c(-c2c(F)cccc2Cl)c(Cl)nc2ncnn12 [comparison (S)-amine of I.-2] | 100 |  |  | 90 | 90 | 90 |  | 100 | 100 | 100 | 100 | 
9 | CC[C@H](C)Nc1c(-c2c(F)cccc2F)c(Cl)nc2ncnn12 [comparison (S)-amine of I.-4] | 100 |  |  | 100 | 100 | 90 | 100 | 100 | 100 | 100 | 100 | 
10 | CC[C@H](C)Nc1c(-c2c(F)cc(OC)cc2F)c(Cl)nc2ncnn12 [comparison (S)-amine of I.-16] |  |  |  |  | 90 | 90 | 100 | 100 | 100 | 100 | 5 | 
11 | CC[C@H](C)Nc1c(-c2c(F)c(F)c(F)c(F)c2F)c(Cl)nc2ncnn12 [comparison (S)-amine of I.-19] |  |  |  | 90 | 90 | 90 |  | 30 | 30 |  |  | 80
12 | CC(C)[C@H](C)Nc1c(-c2c(F)c(F)c(F)c(F)c2F)c(Cl)nc2ncnn12 [comparison (S)-amine of I.-20] |  | 100 | 40 | 90 | 90 | 90 | 80 | 40 | 40 |  |  | 7

— patent US20040110771A1, “7-(r)-aminotriazolopyrimidines, the production thereof and use of the same for combatting phytopathogenic fungi” (priority 2000, published 2004)
